Kd data for twelve compounds are collected here from patent US20250064941A1, “SIGLEC LIGANDS, CONJUGATES, AND METHODS OF USE THEREOF” (Osprey Biopharmaceuticals, Inc., priority 2023, published 2025).

The target in assay [1] is T1, mouse Siglec-2-Fc-Avi (CD22) (Mus musculus, UniProt P35329).
T1 construct: made in house
T1 sequence (P35329 22-708 limits assumed): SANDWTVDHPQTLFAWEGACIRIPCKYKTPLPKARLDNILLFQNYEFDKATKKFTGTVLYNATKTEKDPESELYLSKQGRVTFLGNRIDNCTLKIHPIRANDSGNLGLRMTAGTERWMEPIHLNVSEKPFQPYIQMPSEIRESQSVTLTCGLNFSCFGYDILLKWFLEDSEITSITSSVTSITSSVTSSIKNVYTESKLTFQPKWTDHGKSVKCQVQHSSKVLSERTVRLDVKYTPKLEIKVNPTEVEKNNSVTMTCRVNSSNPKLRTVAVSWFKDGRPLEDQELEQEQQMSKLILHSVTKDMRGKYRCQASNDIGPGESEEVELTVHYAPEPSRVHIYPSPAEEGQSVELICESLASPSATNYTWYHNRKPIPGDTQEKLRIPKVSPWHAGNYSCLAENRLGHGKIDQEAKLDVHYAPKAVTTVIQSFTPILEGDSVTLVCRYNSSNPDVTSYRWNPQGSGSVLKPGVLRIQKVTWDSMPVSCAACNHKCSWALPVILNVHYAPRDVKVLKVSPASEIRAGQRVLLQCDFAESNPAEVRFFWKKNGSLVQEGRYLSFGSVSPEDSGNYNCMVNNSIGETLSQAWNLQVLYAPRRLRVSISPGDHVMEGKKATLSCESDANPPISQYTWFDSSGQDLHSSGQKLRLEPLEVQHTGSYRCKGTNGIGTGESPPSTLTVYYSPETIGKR
Nature of the assay: SPR binding affinity to mouse CD22. The settings on record: steady-state analysis. In short, it runs like this: (§1)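 Native sialic acid residues are removed from the receptor enzymatically (4 hours at 37° C.) prior to streptavidin capture of the biotinylated protein. Ligand compounds then flow over in HEPES-buffered saline, pH 7.5, containing 0.05% Tween-20 and 1% DMSO, and binding is evaluated at steady state.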
On the technique in general: Surface plasmon resonance follows binding to a sensor surface in real time, without labels.

In assay [2] the target is T2, human Siglec-2/CD22 protein (Homo sapiens, UniProt P20273).
T2 construct: purchased Acro Biosystems SI2-H82E3
T2 sequence (P20273 20-847): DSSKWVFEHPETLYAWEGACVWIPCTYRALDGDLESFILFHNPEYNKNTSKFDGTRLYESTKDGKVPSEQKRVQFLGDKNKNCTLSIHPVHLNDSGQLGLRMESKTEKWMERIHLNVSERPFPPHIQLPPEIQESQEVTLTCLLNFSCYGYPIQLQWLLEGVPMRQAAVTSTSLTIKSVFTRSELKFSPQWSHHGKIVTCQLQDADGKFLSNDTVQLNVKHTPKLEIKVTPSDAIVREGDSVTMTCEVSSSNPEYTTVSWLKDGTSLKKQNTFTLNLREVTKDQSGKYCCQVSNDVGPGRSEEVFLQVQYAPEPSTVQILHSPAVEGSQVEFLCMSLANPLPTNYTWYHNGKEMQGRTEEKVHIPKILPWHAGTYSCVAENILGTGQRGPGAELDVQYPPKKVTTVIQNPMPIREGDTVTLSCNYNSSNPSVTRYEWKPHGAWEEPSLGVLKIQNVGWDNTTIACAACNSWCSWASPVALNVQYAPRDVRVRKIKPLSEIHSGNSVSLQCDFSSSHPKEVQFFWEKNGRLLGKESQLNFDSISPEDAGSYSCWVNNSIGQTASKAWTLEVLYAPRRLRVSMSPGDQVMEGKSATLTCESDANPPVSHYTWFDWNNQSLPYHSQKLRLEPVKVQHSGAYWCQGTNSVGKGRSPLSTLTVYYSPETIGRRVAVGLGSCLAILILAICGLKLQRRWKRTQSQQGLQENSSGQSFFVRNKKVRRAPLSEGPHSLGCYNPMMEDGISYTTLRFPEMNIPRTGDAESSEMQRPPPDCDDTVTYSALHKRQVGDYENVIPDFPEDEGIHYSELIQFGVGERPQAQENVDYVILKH
Kind of assay: SPR binding affinity to human CD22. The settings on record: steady-state analysis. In short, it runs like this: as §1

The target of a further assay is cynomolgus Siglec-2/CD22 (Macaca fascicularis, UniProt A0A2K5WCZ6). Kind of assay: biochemical. The format is binding. The settings on record: SPR, steady-state analysis; read-out: Affinity cyno CD22. In outline:
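SPR with desialylated (SialoExo, 4 h, 37° C.) cynomolgus CD22 amine-coupled to a CM5 chip. Running buffer 10 mM HEPES, 150 mM NaCl, 0.05% Tween-20, pH 7.5, 1% DMSO, with solvent correction; 120 s dissociation. Affinities from steady-state analysis.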

cynomolgus Siglec-2/CD22, sequence (A0A2K5WCZ6 entry or part of it): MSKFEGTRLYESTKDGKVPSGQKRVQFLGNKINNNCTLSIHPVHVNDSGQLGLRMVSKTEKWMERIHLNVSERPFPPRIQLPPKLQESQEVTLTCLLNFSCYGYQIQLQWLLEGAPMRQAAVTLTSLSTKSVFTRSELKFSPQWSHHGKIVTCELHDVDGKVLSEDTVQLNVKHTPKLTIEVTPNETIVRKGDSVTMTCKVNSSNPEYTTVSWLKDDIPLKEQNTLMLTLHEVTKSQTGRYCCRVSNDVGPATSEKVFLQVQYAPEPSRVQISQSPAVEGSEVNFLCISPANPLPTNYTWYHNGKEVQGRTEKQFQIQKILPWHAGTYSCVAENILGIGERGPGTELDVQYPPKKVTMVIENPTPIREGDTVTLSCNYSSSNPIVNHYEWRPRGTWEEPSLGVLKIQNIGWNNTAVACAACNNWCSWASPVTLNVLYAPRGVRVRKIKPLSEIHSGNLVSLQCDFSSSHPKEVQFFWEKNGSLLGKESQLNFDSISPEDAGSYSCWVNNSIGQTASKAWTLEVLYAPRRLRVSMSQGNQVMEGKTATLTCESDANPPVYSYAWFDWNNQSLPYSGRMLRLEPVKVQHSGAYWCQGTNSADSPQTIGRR

On to `C#CCOCCCCCCO[C@]1(C(=O)O)C[C@H](O)[C@@H](NC(=O)CC2CC2)[C@H]([C@H](O)[C@H](O)CNC(=O)Cc2ccc(Cl)cc2)O1` [Compound 88, (2R,4S,5R,6R)-6-((1R,2R)-3-(2-(4-chlorophenyl)acetamido)-1,2-dihydroxypropyl)-5-(2-cyclopropylacetamido)-4-hydroxy-2-((6-(prop-2-yn-1-yloxy)hexyl)oxy)tetrahydro-2H-pyran-2-carboxylic acid], for which the Kd in assay [1] was more than 10 µM; in assay [2], 1 to 10 µM; on cynomolgus Siglec-2/CD22 it was 1 to 10 µM.

`C#CCCCCCCO[C@]1(C(=O)O)C[C@H](O)[C@@H](NC(=O)CO)[C@H]([C@H](O)[C@H](O)CNC(=O)Cc2ccc(Cl)cc2)O1` [Compound 110, (2R,4S,5R,6R)-6-((1R,2R)-3-(2-(4-chlorophenyl)acetamido)-1,2-dihydroxypropyl)-4-hydroxy-5-(2-hydroxyacetamido)-2-(oct-7-yn-1-yloxy)tetrahydro-2H-pyran-2-carboxylic acid]: the Kd (in assay [1]; in assay [2]; on cynomolgus Siglec-2/CD22) was less than 1 µM in each case.

For `C#CCCOc1cccc(CO[C@]2(C(=O)O)C[C@H](O)[C@@H](NC(C)=O)[C@H]([C@H](O)[C@H](O)CNC(=O)c3cccc(Oc4ccccc4)c3)O2)c1` [Compound 23, (2R,4S,5R,6R)-5-acetamido-2-((3-(but-3-yn-1-yloxy)benzyl)oxy)-6-((1R,2R)-1,2-dihydroxy-3-(3-phenoxybenzamido)propyl)-4-hydroxytetrahydro-2H-pyran-2-carboxylic acid], the Kd is more than 10 µM in assay [1], 1 to 10 µM in assay [2] and 1 to 10 µM at cynomolgus Siglec-2/CD22.

With `C#CCCOc1ccc(CO[C@]2(C(=O)O)C[C@H](O)[C@@H](NC(=O)CO)[C@H]([C@H](O)[C@H](O)CNC(=O)Cc3ccc4nc[nH]c4c3)O2)cc1` [Compound 8, (2R,4S,5R,6R)-6-((1R,2R)-3-(2-(1H-benzo[d]imidazol-6-yl)acetamido)-1,2-dihydroxypropyl)-2-((4-(but-3-yn-1-yloxy)benzyl)oxy)-4-hydroxy-5-(2-hydroxyacetamido)tetrahydro-2H-pyran-2-carboxylic acid], the Kd (in assay [1]; in assay [2]; on cynomolgus Siglec-2/CD22) was 1 to 10 µM throughout.

On to `C#CCOCCOCCO[C@]1(C(=O)O)C[C@H](O)[C@@H](NC(=O)CO)[C@H]([C@H](O)[C@H](O)CNC(=O)Cc2ccc3[nH]ccc3c2)O1` [Compound 196, (2R,4S,5R,6R)-6-((1R,2R)-3-(2-(1H-indol-5-yl)acetamido)-1,2-dihydroxypropyl)-4-hydroxy-5-(2-hydroxyacetamido)-2-(2-(2-(prop-2-yn-1-yloxy)ethoxy)ethoxy)tetrahydro-2H-pyran-2-carboxylic acid], for which the Kd in assay [1] was 1 to 10 µM; in assay [2], less than 1 µM; on cynomolgus Siglec-2/CD22, less than 1 µM.

On to `C#CCCOc1ccc(CO[C@]2(C(=O)O)C[C@H](O)[C@@H](NC(=O)CO)[C@H]([C@H](O)[C@H](O)CNC(=O)Cc3ccc(-c4ccc(NC(C)=O)cc4)cc3)O2)cc1` [Compound 50, (2R,4S,5R,6R)-6-((1R,2R)-3-(2-(4′-acetamido-[1,1′-biphenyl]-4-yl)acetamido)-1,2-dihydroxypropyl)-2-((4-(but-3-yn-1-yloxy)benzyl)oxy)-4-hydroxy-5-(2-hydroxyacetamido)tetrahydro-2H-pyran-2-carboxylic acid], for which the values for the Kd (in assay [1]; in assay [2]; on cynomolgus Siglec-2/CD22) were less than 1 µM, less than 1 µM and 1 to 10 µM, respectively.

In the case of `C#CCOCCCCCCO[C@]1(C(=O)O)C[C@H](O)[C@@H](NC(=O)NCCO)[C@H]([C@H](O)[C@H](O)CNC(=O)Cc2ccc(Cl)cc2)O1` [Compound 185, (2R,4S,5R,6R)-6-((1R,2R)-3-(2-(4-chlorophenyl)acetamido)-1,2-dihydroxypropyl)-4-hydroxy-5-(3-(2-hydroxyethyl)ureido)-2-((6-(prop-2-yn-1-yloxy)hexyl)oxy)tetrahydro-2H-pyran-2-carboxylic acid], the figures for the Kd (in assay [1]; in assay [2]; on cynomolgus Siglec-2/CD22) were 1 to 10 µM, 1 to 10 µM and less than 1 µM, respectively.

For the compound `O=C(O)CCCCCCO[C@]1(C(=O)O)C[C@H](O)[C@@H](NC(=O)CO)[C@H]([C@H](O)[C@H](O)CNC(=O)Cc2cccc(O)c2)O1` [Compound 143, (2R,4S,5R,6R)-2-((6-carboxyhexyl)oxy)-6-((1R,2R)-1,2-dihydroxy-3-(2-(3-hydroxyphenyl)acetamido)propyl)-4-hydroxy-5-(2-hydroxyacetamido)tetrahydro-2H-pyran-2-carboxylic acid], the figures for the Kd (in assay [1]; in assay [2]; on cynomolgus Siglec-2/CD22) were 1 to 10 µM, less than 1 µM and less than 1 µM, respectively.

Turning to `CC(=O)NCCOCCOCCOCCOCc1cn(CCOCCOCCO[C@]2(C(=O)O)C[C@H](O)[C@@H](NC(=O)CO)[C@H]([C@H](O)[C@H](O)CNC(=O)Cc3ccc(-c4ccccc4)cc3)O2)nn1` [Cpd. 243, (2R,4S,5R,6R)-6-((1R,2R)-3-(2-([1,1′-biphenyl]-4-yl)acetamido)-1,2-dihydroxypropyl)-4-hydroxy-5-(2-hydroxyacetamido)-2-(2-(2-(2-(4-(15-oxo-2,5,8,11-tetraoxa-14-azahexadecyl)-1H-1,2,3-triazol-1-yl)ethoxy)ethoxy)ethoxy) tetrahydro-2H-pyran-2-carboxylic acid], the Kd (in assay [1]; in assay [2]; at cynomolgus Siglec-2/CD22) was 1 to 10 µM each time.

For the compound `C#CCOCCOCCO[C@]1(C(=O)O)C[C@H](O)[C@@H](NC(=O)CO)[C@H]([C@H](O)[C@H](O)CNC(=O)c2ccc(-c3ccc(O)cc3)cc2)O1` [Compound 19, (2R,4S,5R,6R)-6-((1R,2R)-1,2-dihydroxy-3-(4′-hydroxy-[1,1′-biphenyl]-4-carboxamido)propyl)-4-hydroxy-5-(2-hydroxyacetamido)-2-(2-(2-(prop-2-yn-1-yloxy)ethoxy)ethoxy)tetrahydro-2H-pyran-2-carboxylic acid], the figures for the Kd (in assay [1]; in assay [2]; on cynomolgus Siglec-2/CD22) were 1 to 10 µM, less than 1 µM and 1 to 10 µM, respectively.

Turning to `C#CCOCCCCCCO[C@]1(C(=O)O)C[C@H](O)[C@@H](NC(=O)CO)[C@H]([C@H](O)[C@H](O)CNC(=O)Cc2ccc(C(F)F)cc2)O1` [Compound 157, (2R,4S,5R,6R)-6-((1R,2R)-3-(2-(4-(difluoromethyl)phenyl)acetamido)-1,2-dihydroxypropyl)-4-hydroxy-5-(2-hydroxyacetamido)-2-((6-(prop-2-yn-1-yloxy)hexyl)oxy)tetrahydro-2H-pyran-2-carboxylic acid], the Kd (in assay [1]; in assay [2]; on cynomolgus Siglec-2/CD22) was less than 1 µM throughout.

Consider `CC(=O)NCCOCCOCCOCCOCc1cn(CCOCCOCCO[C@]2(C(=O)O)C[C@H](O)[C@@H](NC(=O)CO)[C@H]([C@H](O)[C@H](O)CNC(=O)Cc3ccc(Cl)cc3)O2)nn1` [Cpd. 260, (2R,4S,5R,6R)-6-((1R,2R)-3-(2-(4-chlorophenyl)acetamido)-1,2-dihydroxypropyl)-4-hydroxy-5-(2-hydroxyacetamido)-2-(2-(2-(2-(4-(15-oxo-2,5,8,11-tetraoxa-14-azahexadecyl)-1H-1,2,3-triazol-1-yl)ethoxy)ethoxy)ethoxy)tetrahydro-2H-pyran-2-carboxylic acid], for which the Kd (in assay [1]; in assay [2]; on cynomolgus Siglec-2/CD22) was 1 to 10 µM each time.
